The values below come from patent US6930093B2, “Use of ribofuranose derivatives against inflammatory bowel diseases” (Valeant Research & Development, priority 2003, dated 2005).

Several values for one entry are separate records, joined by “and”; a condition that tells them apart may be missing. Identical values can stand only once.

The assay has as its system DNBS induced distal colitis in Wistar rats. In words: DNBS (2,4 dinitrobenzenesulfonic acid) induced distal colitis in Wistar rats as a model for inflammatory bowel disease. It is filed as in vivo, Wistar derived female rats. The following applies: for I: Table 3; for I / Colon weight per 100 g B.W.: ribavirin 100 mg/kg × 7 or sulfasalazine 300 mg/kg × 7 p.o.; for Colon weight per 100 g B.W.: sacrifice 24 hours after final dosing. The method, then:
Wistar derived female rats were provided by MDS Pharma Services Taiwan Ltd. and housed in APEC^R cages. All animals were maintained in a controlled temperature (22° C.-24° C.) and humidity (60-80%) environment with 12 hours light dark cycles for at least one week in the laboratory prior to use. Free access to standard lab chow (LabDiet, Rodent Diet, PMI Nutrition International, USA) and tap water was granted. All aspects of the work including housing, experimentation and disposal of animals were performed in general accordance with the International Guiding Principles for Biomedical Research Involving Animals (CIOMSI Publication No. ISBN 9290360194, 1985).
[…] (TCI, Japan), absolute ethanol (Merck, Germany), sodium chloride (Wako, Japan), sulfasalazine (Sigma, USA) and Tween 80 (Wako, Japan).
Groups of 3 Wistar derived female rats weighing 180±20 grams and fasted for 24 hours were used. Distal colitis was induced by intra-colonic instillation of 2,4-ninitrobenzene sulfonic acid (DNBS; 30 mg in 0.5 mL ethanol 30%), which was followed by injection of air (2 mL) through a cannula to ensure that the solution remained in the colon. […] Two control groups were similarly treated with vehicle alone while challenged with either DNBS (vehicle-control) or 0.9% NaCl solution (blank-control). The animals were sacrificed 24 hours after the final dosing of test compound and each colon was removed and weighed. During the experiment, the presence of diarrhea was recorded daily. Furthermore, when the abdominal cavity was opened, adhesions between the colon and other organs were first noted; presence of colonic ulceration was evaluated after removal and weighing of each colon. The colon-to-body weight (BW) ratio was then calculated for each animal according to the formula: Colon [(g)/BW(g)]×100%. The “Net” increase in the ratio of vehicle-control+DNBS group relative to vehicle-control group was used as a base for comparison with test substance treated groups and expressed as percent decrease. A 30% or more (≧30%) reduction in colon-to-body weight ratio, relative to the vehicle-treated control group, is considered significant.

In the case of `O=C(O)c1cc(/N=N/c2ccc(S(=O)(=O)Nc3ccccn3)cc2)ccc1O` [Sulfasalazine, sulfasalazine], under “group Avg of 3 rats”, the I was determined as 0.625 and the “Colon weight per 100 g B.W.” value turned out to be 0.98. Also, under “individual animals (N 1-3)”, the I was 0.631 and 0.548 and 0.697; the “Colon weight per 100 g B.W.” value is 1.01 and 0.85 and 1.08.

On to `NC(=O)c1ncn([C@@H]2O[C@H](CO)[C@@H](O)[C@H]2O)n1` [Ribavirin, 1-β-D-ribofuranosyl-1H-1,2,4-triazole-3-carboxamide], for which the I (group Avg of 3 rats) amounted to 0.733. For the same compound, under “individual animals (N 1-3)”, the I was 0.780 and 0.619 and 0.800; the “Colon weight per 100 g B.W.” value is 0.96 and 1.24. The “effectiveness in this IBD model” value (ribavirin 100 mg/kg p.o., 24 and 2 hours before DNBS and then daily for 5 days) is listed as “effective”.
